The values that follow come from patent US20220395481A1, “BACTERIOSTATIC COMPOSITION, PREPARATION METHOD THEREFOR, AND USE THEREOF” (SHENZHEN EULIKAN BIOTECHNOLOGY CO., LTD, priority 2020, published 2022).

One experiment has as its system lactobacilli. Conditions: cited from earlier work.
Experiment [1] deals with Candida albicans ATCC 10231. The experiment in a line: Inhibition rate after 20 minutes of action, Appendix C of GB 15979-2002. The experiment is classed as cell-based.
Excerpt: “Inhibition rate” is the inhibition rate of bacteriostatic agents against Escherichia coli, Staphylococcus aureus, Candida albicans, or other microorganisms obtained by referring to the test methods and judgment criteria in Appendix C of GB 15979-2002 Hygienic Standard for Disposable Sanitary Products.
“Bacteriostatic effect” refers to the inhibition of bacteria, fungi, or other microorganisms by bacteriostatic agents.
The percentage concentration of each ingredient therein was the weight percentage concentration % (w/w), and the pH value of each group was 3.8.
The percentage concentration of each ingredient therein was the weight percentage concentration % (w/w), and the pH value of each group was 4.0.
According to the method described in Appendix C of GB 15979-2002 Hygienic Standard for Disposable Sanitary Products, aqueous solutions containing different ingredients were studied for their bacteriostatic effects of 20 minutes of action against Candida albicans ATCC 10231, the percentage concentration of each ingredient therein was the weight percentage concentration % (w/w), and the pH value of each group was 3.9. […]

Read-outs that look alike come from different tables or passages of the source.

Turning to `OCCc1ccccc1` [phenethyl alcohol, phenethyl alcohol (2-phenylethanol)], the growth of lactobacilli entry in the experiment on lactobacilli (concentration 0.40% (w/v)) was “not significantly inhibited”; in the experiment on lactobacilli (concentration 0.50% (w/v)) it was “inhibited”.
`O=C([O-])c1ccccc1.[Na+]` [0.25% sodium benzoate, sodium benzoate] registered an Inhibition rate in experiment [1] (Table 12, single ingredient solutions, pH 3.8, 20 minutes of action) of 3.73%.
In the case of `N[C@@H](CCC(=O)O)C(=O)O` [0.55% glutamic acid, glutamic acid], the “influence on the bacteriostatic effect of the solution containing 0.14% malic acid, 1.46% adipic acid, 0.20% sodium benzoate, 1.67% propionic acid, and 0.40% phenethyl alcohol against Candida albicans” value in experiment [1] (text on Table 26, pH 4.0, Group 1 compared to Group 2) is on record as “did not affect the bacteriostatic effect”.
For `CCC(=O)[O-].[Na+]` [sodium propionate], the values for the growth of lactobacilli entry in the experiment with lactobacilli (concentration 0.40% (w/v)), with lactobacilli (concentration 0.50% (w/v)) and with lactobacilli (concentration 0.70% (w/v)) were “not significantly inhibited”, “not significantly inhibited” and “inhibited”, respectively.
